The target of experiment [1] is T1, AHR (Homo sapiens, UniProt P35869).
T1 sequence (P35869 11-848): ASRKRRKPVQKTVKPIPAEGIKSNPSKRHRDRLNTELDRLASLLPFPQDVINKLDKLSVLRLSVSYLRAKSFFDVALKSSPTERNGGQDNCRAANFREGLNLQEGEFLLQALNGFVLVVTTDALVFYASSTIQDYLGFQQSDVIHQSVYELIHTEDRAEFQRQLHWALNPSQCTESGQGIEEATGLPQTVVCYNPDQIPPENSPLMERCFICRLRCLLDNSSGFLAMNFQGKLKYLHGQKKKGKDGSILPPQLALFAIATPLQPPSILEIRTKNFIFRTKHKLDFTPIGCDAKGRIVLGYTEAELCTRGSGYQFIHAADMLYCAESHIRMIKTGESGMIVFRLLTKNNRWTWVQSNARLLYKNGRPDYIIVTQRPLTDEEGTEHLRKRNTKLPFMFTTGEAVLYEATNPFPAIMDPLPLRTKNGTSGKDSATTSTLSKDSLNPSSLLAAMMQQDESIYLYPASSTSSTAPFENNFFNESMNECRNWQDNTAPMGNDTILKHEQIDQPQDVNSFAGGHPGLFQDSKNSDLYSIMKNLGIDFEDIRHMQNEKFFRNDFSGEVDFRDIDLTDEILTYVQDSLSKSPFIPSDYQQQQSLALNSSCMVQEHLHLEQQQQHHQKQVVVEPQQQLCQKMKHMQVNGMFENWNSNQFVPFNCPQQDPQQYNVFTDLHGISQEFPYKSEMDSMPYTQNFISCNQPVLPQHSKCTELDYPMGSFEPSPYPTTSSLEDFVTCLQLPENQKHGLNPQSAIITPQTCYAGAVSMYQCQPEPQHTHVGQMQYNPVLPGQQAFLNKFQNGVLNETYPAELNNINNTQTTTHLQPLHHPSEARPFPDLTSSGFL
The experiment is described as follows: In vitro assay 2: agonism in human cell line (transactivation assay, U87 cells, DRE firefly luciferase reporter). The class given is cell-based. The following applies: no kynurenic acid, 20 hours, read-out: Assay 2: AHR-luc Hum Agonism IC50. Details: host or cells: U87 glioblastoma cells, stably transfected with DRE firefly luciferase and renilla reporter constructs. The essentials: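 U87 glioblastoma cells with endogenous AHR, stably carrying DRE-driven firefly luciferase and constitutive renilla reporters. 300 uM kynurenic acid served as positive activation control; data normalized to positive and negative controls.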
For orientation: A reporter such as luciferase makes a cellular process visible.

Experiment [2] concerns the target T1, AHR. The experiment is described as follows: In vitro assay 1: antagonism in human cell line (transactivation assay, U87 cells prestimulated with kynurenic acid, DRE firefly luciferase reporter). Details: host or cells: U87 glioblastoma cells, stably transfected with DRE firefly luciferase and renilla reporter constructs. The class given is cell-based. The following applies: 150 uM kynurenic acid, 20 hours, read-out: Assay 1: AHR-luc Hum Antagonism IC50. The procedure, abridged: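 U87 glioblastoma cells with endogenous AHR, stably carrying a DRE-driven firefly luciferase reporter and a constitutive renilla reporter. Cells prestimulated with the AHR agonist kynurenic acid before compound addition; data normalized to positive and negative controls.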

SMILES strings stand for the structures.

Consider `Cn1cc(-n2nc(-c3ccc(CF)cc3)cc(C(=O)N[C@H](CO)C(F)(F)F)c2=O)cn1` [Example 275, 6-[4-(Fluoromethyl)phenyl]-2-(1-methyl-1H-pyrazol-4-yl)-3-oxo-N-[(2R)-1,1,1-trifluoro-3-hydroxypropan-2-yl]-2,3-dihydropyridazine-4-carboxamide], for which the 50% inhibitory concentration (IC50) (usually the concentration at which inhibition is half-maximal) is more than 20000 nM on AHR [1] and 130 nM at AHR [2].

Take `C[C@@H](CO)NC(=O)c1cc(-c2ccc(Cl)cc2)nn(-c2cncc(Cl)c2)c1=O` [Example 303, 6-(4-Chlorophenyl)-2-(5-chloropyridin-3-yl)-N-[(2S)-1-hydroxypropan-2-yl]-3-oxo-2,3-dihydropyridazine-4-carboxamide]: the results for the IC50 at AHR [1] and at AHR [2] were more than 20000 nM and 133 nM, respectively.

Consider `Cn1cc(-n2nc(-c3ccc(C(F)F)cc3)cc(C(=O)N[C@@H]3COC[C@@H]3O)c2=O)cn1` (relative stereo) [Example 60, 6-[4-(Difluoromethyl)phenyl]-N-[(cis)-4-hydroxytetrahydrofuran-3-yl]-2-(1-methyl-1H-pyrazol-4-yl)-3-oxo-2,3-dihydropyridazine-4-carboxamide], for which the half-inhibitory concentration (IC50) on AHR [1] was more than 20000 nM; at AHR [2] it was 21.8 nM.

Consider `O=C(N[C@@H]1COC[C@@H]1O)c1cc(-c2ccc(C(F)F)cc2)nn(-c2cccnc2)c1=O` (single isomer, unassigned) [Example 318, 6-[4-(Difluoromethyl)phenyl]-N-[(cis)-4-hydroxy-tetrahydrofuran-3-yl]-3-oxo-2-(pyridin-3-yl)-2,3-dihydropyridazine-4-carboxamide], for which the half-maximal inhibitory concentration (IC50) on AHR [1] was more than 20000 nM; at AHR [2], 32 nM.

As to `O=C(NC[C@H](O)C(F)(F)F)c1cc(-c2ccc(C(F)(F)F)cc2)nn(-c2cnn(C(F)F)c2)c1=O` [Example 223, 2-[1-(Difluoromethyl)-1H-pyrazol-4-yl]-3-oxo-N-[(2S)-3,3,3-trifluoro-2-hydroxypropyl]-6-[4-(trifluoromethyl)phenyl]-2,3-dihydropyridazine-4-carboxamide], the figures for the IC50 at AHR [1] and at AHR [2] were more than 20000 nM and 4.31 nM, respectively.

Turning to `C[C@H](NC(=O)c1cc(-c2ccc(C(F)(F)F)nc2)nn(-c2cnsc2)c1=O)C(C)(C)O` [Example 233, N-[(2S)-3-Hydroxy-3-methylbutan-2-yl]-3-oxo-2-(1,2-thiazol-4-yl)-6-[6-(trifluoromethyl)pyridin-3-yl]-2,3-dihydropyridazine-4-carboxamide], the IC50 on AHR [1] amounted to 17200 nM; on AHR [2], 8.23 nM.

`Cn1cc(-n2nc(-c3ccc(C(F)(F)F)cc3)cc(C(=O)NCC(C)(C)O)c2=O)cn1` [Example 67, N-(2-Hydroxy-2-methylpropyl)-2-(1-methyl-1H-pyrazol-4-yl)-3-oxo-6-[4-(trifluoromethyl)phenyl]-2,3-dihydropyridazine-4-carboxamide]: the figures for the 50% inhibitory concentration (IC50) on AHR [1] and at AHR [2] were more than 20000 nM and 4.3 nM, respectively.

As to `O=C(NC[C@H](O)C(F)(F)F)c1cc(-c2ccc(CF)cc2)nn(-c2cccnc2)c1=O` [Example 280, 6-[4-(Fluoromethyl)phenyl]-3-oxo-2-(pyridin-3-yl)-N-[(2S)-3,3,3-trifluoro-2-hydroxypropyl]-2,3-dihydropyridazine-4-carboxamide], the results for the IC50 on AHR [1] and at AHR [2] were more than 20000 nM and 178 nM, respectively.

Turning to `O=C(N[C@H]1CCCC(F)(F)[C@@H]1O)c1cc(-c2ccc(OC(F)(F)F)cc2)nn(-c2cccnc2)c1=O` (relative stereo) [Example 140, N-[(trans)-3,3-Difluoro-2-hydroxycyclohexyl]-3-oxo-2-(pyridin-3-yl)-6-[4-(trifluoromethoxy)phenyl]-2,3-dihydropyridazine-4-carboxamide], the IC50 was more than 20000 nM at AHR [1] and 9.55 nM on AHR [2].

For the molecule `O=C(N[C@@H]1CSC[C@@H]1O)c1cc(-c2ccc(C(F)(F)F)cc2)nn(-c2cccnc2)c1=O` (single isomer, unassigned) [Example 291, (−)-N-cis-4-hydroxy-tetrahydrothiophen-3-yl-3-oxo-2-(pyridin-3-yl)-6-[4-(trifluoromethyl)phenyl]-2,3-dihydropyridazine-4-carboxamide], the IC50 at AHR [1] is more than 20000 nM; at AHR [2] it was 4.38 nM.

For the molecule `C[C@@H](CO)NC(=O)c1cc(-c2ccc(Cl)cc2)nn(-c2cncnc2)c1=O` [Example 120, 6-(4-Chlorophenyl)-N-[(2S)-1-hydroxypropan-2-yl]-3-oxo-2-(pyrimidin-5-yl)-2,3-dihydropyridazine-4-carboxamide], the half-inhibitory concentration (IC50) was more than 20000 nM at AHR [1] and 67.9 nM on AHR [2].

Take `O=C(NC[C@H](O)CO)c1cc(-c2ccc(Cl)cc2)nn(-c2cncc(F)c2)c1=O` [Example 99, 6-(4-Chlorophenyl)-N-[(2S)-2,3-dihydroxypropyl]-2-(5-fluoropyridin-3-yl)-3-oxo-2,3-dihydropyridazine-4-carboxamide]: the IC50 is more than 20000 nM on AHR [1] and 129 nM on AHR [2].

As to `O=C(NCC(O)C(F)F)c1cc(-c2ccc(C(F)(F)F)cc2)nn(-c2cccnc2)c1=O` (single isomer, unassigned; (+)) [Example 247, (+)-N-(3,3-Difluoro-2-hydroxypropyl)-3-oxo-2-(pyridin-3-yl)-6-[4-(trifluoromethyl)phenyl]-2,3-dihydropyridazine-4-carboxamide], the concentration for half-maximal inhibition (IC50) was more than 20000 nM on AHR [1] and 13.9 nM on AHR [2].

For the molecule `C[C@H](NC(=O)c1cc(-c2ccc(OC(F)(F)F)cc2)nn(-c2cnsc2)c1=O)C(C)(C)O` [Example 312, N-[(2S)-3-Hydroxy-3-methylbutan-2-yl]-3-oxo-2-(1,2-thiazol-4-yl)-6-[4-(trifluoromethoxy)phenyl]-2,3-dihydropyridazine-4-carboxamide], the IC50 at AHR [1] was more than 20000 nM; at AHR [2], 1.85 nM.

Regarding `O=C(N[C@H]1CCCC(F)(F)[C@@H]1O)c1cc(-c2ccc(OC(F)(F)F)cc2)nn(-c2cccnc2)c1=O` (single isomer, unassigned; enantiomer 2) [Example 142, N-[(trans)-3,3-Difluoro-2-hydroxycyclohexyl]-3-oxo-2-(pyridin-3-yl)-6-[4-(trifluoromethoxy)phenyl]-2,3-dihydropyridazine-4-carboxamide, Enantiomer 2], the IC50 at AHR [1] was more than 20000 nM; at AHR [2] it was 8.32 nM.

As to `CC(C)(O)C(NC(=O)c1cc(-c2ccc(C(F)(F)F)cc2)nn(-c2cccnc2)c1=O)C(F)(F)F` (single isomer, unassigned; (+)) [Example 197, (+)-3-Oxo-2-(pyridin-3-yl)-N-(1,1,1-trifluoro-3-hydroxy-3-methylbutan-2-yl)-6-[4-(trifluoromethyl)phenyl]-2,3-dihydropyridazine-4-carboxamide], the IC50 at AHR [1] is more than 20000 nM; on AHR [2], 0.502 nM.

Regarding `C[C@H](NC(=O)c1cc(-c2ccc(Cl)cc2)nn(-c2cn[nH]c2)c1=O)C(C)(C)O` [Example 276, 6-(4-Chlorophenyl)-N-[(2S)-3-hydroxy-3-methylbutan-2-yl]-3-oxo-2-(1H-pyrazol-4-yl)-2,3-dihydropyridazine-4-carboxamide], the IC50 at AHR [1] is more than 20000 nM; on AHR [2] it was 131 nM.

As to `O=C(N[C@H](CO)CF)c1cc(-c2ccc(C(F)(F)F)cc2)nn(-c2cccnc2)c1=O` [Example 221, N-[(2R)-1-Fluoro-3-hydroxypropan-2-yl]-3-oxo-2-(pyridin-3-yl)-6-[4-(trifluoromethyl)phenyl]-2,3-dihydropyridazine-4-carboxamide], the IC50 was more than 20000 nM on AHR [1] and 3.63 nM at AHR [2].

In the case of `C[C@@H](CO)NC(=O)c1cc(-c2ccc(C(F)F)nc2)nn(-c2cnn(C)c2)c1=O` [Example 66, 6-[6-(Difluoromethyl)pyridin-3-yl]-N-[(2S)-1-hydroxypropan-2-yl]-2-(1-methyl-1H-pyrazol-4-yl)-3-oxo-2,3-dihydropyridazine-4-carboxamide], the IC50 at AHR [1] is more than 20000 nM; at AHR [2], 259 nM.

With `C[C@@H](CO)NC(=O)c1cc(-c2ccc(C(F)F)nc2)nn(-c2cccnc2)c1=O` [Example 180, 6-[6-(Difluoromethyl)pyridin-3-yl]-N-[(2S)-1-hydroxypropan-2-yl]-3-oxo-2-(pyridin-3-yl)-2,3-dihydropyridazine-4-carboxamide], the IC50 is more than 20000 nM on AHR [1] and 794 nM on AHR [2].

For the origin of these results see patent US12522594B2, “2-heteroaryl-3-oxo-2,3-dihydropyridazine-4-carboxamides for the treatment of cancer” (Deutsches Krebsforschungszentrum, priority 2017, dated 2026).
